Tests used:
[1] = test system: histamine-induced vascular hyperpermeability reaction; experiment: Rat histamine-induced vascular hyperpermeability reaction (in vivo antihistamine action); details: SD male rat, oral administration 1 hour before intracutaneous histamine, leaked Evans Blue pigment
Method: An SD male rat (SPF) of 180 g in weight was previously fed for one week or more by allowing the rat to take a solid feed and tap water ad libitum, under the environment setting of a temperature of 22° C., humidity of 55% and an artificial illumination of 12 hours a day (light phase 8 am to 8 pm), and the rat was fasted overnight to be used for the experiment. Histamine•dihydrochloride (hereinafter referred to as histamine) and Evans Blue were used by dissolving each in physiological saline upon use. A substance to be tested was dissolved in water for injection or suspended in 0.5% carboxymethyl cellulose sodium, and the rat was orally administered with the solution or suspension (dose volume: 5 mL/kg body weight). After 1 hour from the administration, the physiological saline and the histamine solution were each intracutaneously injected to two locations (20 μg/0.05 ml/location) each on a back part of the rat of which hair was sheared with an electric clipper while anesthetizing with an ether. A 0.5% Evans Blue-containing physiological saline was injected intravenously to the tail of the rat (1 mL/200 g body weight) immediately before the intracutaneous injection of the histamine.
After 30 minutes, the animal was decapitated, and allowed to bleed lethally, and the skin was removed to measure an amount of leaked pigment in the blue-stained portion. The measurement of the amount of leaked pigment was carried out as follows. Skins of the pigment leaking site were cut out at two locations, 1 mL of a 2 mol/L aqueous potassium hydroxide solution was added thereto in a test tube, and the test tube was allowed to stand overnight at 37° C. to dissolve. Thereafter, 6 mL of a 1:3 mixed solution of 0.67 mol/L phosphoric acid and acetone was added to the solution, and the mixture was vigorously shaken for 10 minutes. Thereafter, the mixture was filtered, and the absorbance of the filtrate at 620 nm was measured. The absorbance obtained from the two locations of the sites injected with physiological saline, as blank value, was used for a compensation. The amount of leaked pigment was calculated from the calibration curve of Evans Blue at 620 nm.

[2] = biological target: T1, cerebral H1 receptor (Mus musculus, UniProt P70174); experiment: Murine cerebral H1 receptor occupying content (ex vivo); format: in vivo; details: for ED50: ICR male mouse, oral administration, brain excised after 1 hour, 3H-pyrilamine binding in brain homogenate, larger = lower brain transfer, read-out: ID50 (the source's name); for ID50 (mg/kg)/ ED50 (mg/kg): ID50 of cerebral receptor binding test (Table 20) divided by ED50 of vascular hyperpermeability test (Table 19)
T1 construct: the entire brain, except for cerebellum and medulla oblongatae, was rapidly excised; from tissue; host or cells: brain homogenate (without cerebellum and medulla oblongata) of orally dosed ICR male mice
Method: A 6-week-old ICR male mouse was previously fed for one week or more by allowing the mouse to take a solid feed and tap water ad libitum, under the environment setting of a temperature of 22° C., humidity of 55% and an artificial illumination of 12 hours a day, and the mouse was fasted overnight to be used for the experiment. A substance to be tested was dissolved with water for injection or suspended in 0.5% carboxymethyl cellulose solution, and the solution or suspension was orally administered to the mouse (dose volume: 0.1 mL/10 g body weight). After 1 hour from the oral administration, the mouse was decapitated, and the entire brain, except for cerebellum and medulla oblongatae, was rapidly excised. The excised brain tissue was homogenized with Polytron (manufactured by Kinematica) in an ice-cooled 50 mmol/L phosphate buffered saline (pH 7.4, 100 mg/1.9 mL).
To a test tube for reaction (TPX-Tube) were added 180 μL of the brain homogenate, and 10 μL of ^3H-pyrilamine solution (final concentration: 2 nmol/L) and 10 μL of a non-labeled pyrilamine solution (final concentration: 200 μmol/L) or a 50 mmol/L phosphate buffered saline, and the mixture was incubated at room temperature for 45 minutes, and 2.0 mL of an ice-cooled, 50 mmol/L phosphate buffered saline was then added thereto to stop the reaction. The reaction mixture was filtered with a GF/B filter (manufactured by […]), and the […] was placed in a vial and dried overnight at 60 degrees. After drying, 10 mL of a scintillator (AL-1, toluene-based, manufactured by DOJINDO LABORATORIES) was added to the product, and the disintegration per minute (dpm) was measured with a liquid scintillation counter (manufactured by Packard, U.S.A., TRI-CARB 2700TR) (5 minutes/vial).

T1 sequence (P70174 whole entry): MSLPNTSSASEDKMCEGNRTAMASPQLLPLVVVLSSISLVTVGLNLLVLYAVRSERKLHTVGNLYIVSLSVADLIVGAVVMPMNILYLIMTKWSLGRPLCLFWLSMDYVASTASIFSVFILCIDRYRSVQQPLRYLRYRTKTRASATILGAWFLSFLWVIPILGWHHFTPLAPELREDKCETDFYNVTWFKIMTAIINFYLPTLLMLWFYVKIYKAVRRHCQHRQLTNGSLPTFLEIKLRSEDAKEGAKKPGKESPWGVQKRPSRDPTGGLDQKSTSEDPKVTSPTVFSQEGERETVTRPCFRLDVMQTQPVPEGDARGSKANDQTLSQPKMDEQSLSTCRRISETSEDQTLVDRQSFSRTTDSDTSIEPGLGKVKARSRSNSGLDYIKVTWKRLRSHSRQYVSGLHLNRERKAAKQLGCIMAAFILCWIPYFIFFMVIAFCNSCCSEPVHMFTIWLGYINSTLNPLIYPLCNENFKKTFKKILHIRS

| SMILES | ED50 [2] | ID50 (mg/kg)/ ED50 (mg/kg) [2] | ED50 [1] |
| --- | --- | --- | --- |
| CN1CCC(=C2c3ccccc3CCc3sc(C(C)(C)C(=O)O)cc32)CC1 [Compound 65, 2-Methyl-2-[4-(1-methylpiperidin-4-ylidene)-9,10-dihydro-4H-1-thiabenzo[f]azulen-2-yl]propionic acid] | 19.5 mg/kg | 139.3 | 0.14 mg/kg |
| CC(C)(C(=O)O)c1cc2c(s1)CCc1ccccc1C2=C1CCNCC1.Cl [Compound 153, 2-Methyl-2-(4-piperidin-4-ylidene-9,10-dihydro-4H-1-thiabenzo[f]azulen-2-yl)propionic acid hydrochloride] | > 200 mg/kg | >76.6 | 2.61 mg/kg |
| CCN1CCC(=C2c3ccccc3CCc3sc(C(=O)O)cc32)CC1.Cl [Compound 108, [4-(1-Ethylpiperidin-4-ylidene)-9,10-dihydro-4H-1-thiabenzo[f]azulen-2-yl]carboxylic acid hydrochloride] | 110 mg/kg | 95.3 | 1.16 mg/kg |
| CCCOC(=O)Cc1ccc2c(c1)C(=C1CCNCC1)c1sccc1CO2.Cl [Compound 137, Propyl (4-piperidin-4-ylidene-4,10-dihydro-9-oxa-3-thiabenzo[f]azulen-6-yl)acetate hydrochloride] | > 200 mg/kg | >833.3 | 0.24 mg/kg |
| CCOC(=O)C(C)(C)c1cc2c(s1)CCc1ccccc1C2=C1CCNCC1.Cl [Compound 152, Ethyl 2-methyl-2-(4-piperidin-4-ylidene-9,10-dihydro-4H-1-thiabenzo[f]azulen-2-yl)propionate hydrochloride] | 199 mg/kg | 133.8 | 1.49 mg/kg |
| CN1CCC(=C2c3ccccc3CCc3sc(C(=O)O)cc32)CC1.Cl [Compound 4, [4-(1-Methylpiperidin-4-ylidene)-9,10-dihydro-4H-1-thiabenzo[f]azulen-2-yl]carboxylic acid hydrochloride] | 43.1 mg/kg | 62.5 | 0.69 mg/kg |
| CN1CCC(=C2c3cc(SC(C)(C)C(=O)O)ccc3OCc3ccsc32)CC1.Cl [Compound 190, 2-Methyl-2-[4-(1-methylpiperidin-4-ylidene)-4,10-dihydro-9-oxa-3-thiabenzo[f]azulen-6-ylsulfanyl]propionic acid hydrochloride] | 73.2 mg/kg | 174.7 | 0.419 mg/kg |
| CC(OC(=O)Cc1ccc2c(c1)C(=C1CCNCC1)c1sccc1CO2)OC(=O)OC1CCCCC1.Cl (stereo not drawn) [Compound 180, 1-Cyclohexyloxycarbonyloxyethyl (4-piperidin-4-ylidene-4,10-dihydro-9-oxa-3-thiabenzo[f]azulen-6-yl)acetate hydrochloride] | > 200 mg/kg | >129.0 | 1.55 mg/kg |
| CN1CCC(=C2c3cc(CC(=O)O)ccc3OCc3ccsc32)CC1.Cl [Compound 54, [4-(1-Methylpiperidin-4-ylidene)-4,10-dihydro-9-oxa-3-thiabenzo[f]azulen-6-yl]acetic acid hydrochloride] | 9.3 mg/kg | 344.4 | 0.027 mg/kg |
| CN1CCC(=C2c3cc(C(=O)O)ccc3OCc3ccsc32)CC1 [Compound 26, [4-(1-Methylpiperidin-4-ylidene)-4,10-dihydro-9-oxa-3-thiabenzo[f]azulen-6-yl]carboxylic acid] | 4.8 mg/kg | 81.4 | 0.059 mg/kg |
| COC(=O)Cc1ccc2c(c1)C(=C1CCNCC1)c1sccc1CO2.Cl [Compound 126, Methyl (4-piperidin-4-ylidene-4,10-dihydro-9-oxa-3-thiabenzo[f]azulen-6-yl)acetate hydrochloride] | 237 mg/kg | 530.7 | 0.446 mg/kg |
| CN1CCC(=C2c3ccccc3CC(=O)c3sc(C=CC(=O)O)cc32)CC1 [Compound 48, 3-[4-(1-Methylpiperidin-4-ylidene)-10-oxo-9,10-dihydro-4H-1-thiabenzo[f]azulen-2-yl]acrylic acid] | 95.5 mg/kg | 140.4 | 0.68 mg/kg |
| COC(=O)CCCc1ccc2c(c1)C(=C1CCNCC1)c1sccc1CO2.Cl [Compound 135, Methyl 4-(4-piperidin-4-ylidene-4,10-dihydro-9-oxa-3-thiabenzo[f]azulen-6-yl)butyrate hydrochloride] | > 200 mg/kg | >85.8 | 2.33 mg/kg |

More lines, main results first:

| ED50 [2] | ID50 (mg/kg)/ ED50 (mg/kg) [2] | SMILES | ED50 [1] |
| --- | --- | --- | --- |
| 4.2 mg/kg | 155.6 | CN1CCC(=C2c3cc(CC(=O)O)ccc3OCc3sccc32)CC1 [Compound 117, [4-(1-Methylpiperidin-4-ylidene)-4,10-dihydro-9-oxa-1-thiabenzo[f]azulen-6-yl]acetic acid] | 0.027 mg/kg |
| 70.3 mg/kg | 114.5 | CC(=O)CCCN1CCC(=C2c3cc(CC(=O)O)ccc3OCc3ccsc32)CC1 [Compound 170, {4-[1-(4-Oxopentyl)piperidin-4-ylidene]-4,10-dihydro-9-oxa-3-thiabenzo[f]azulen-6-yl}acetic acid] | 0.614 mg/kg |
| 7.45 mg/kg | 74.5 | CCN1CCC(=C2c3cc(CC(=O)O)ccc3OCc3ccsc32)CC1 [Compound 128, [4-(1-Ethylpiperidin-4-ylidene)-4,10-dihydro-9-oxa-3-thiabenzo[f]azulen-6-yl]acetic acid] | ~0.1 mg/kg |
| 23 mg/kg | 76.7 | CC(=O)CCCN1CCC(=C2c3cc(CCCC(=O)O)ccc3OCc3ccsc32)CC1 [Compound 188, 4-{4-[1-(4-Oxopentyl)piperidin-4-ylidene]-4,10-dihydro-9-oxa-3-thiabenzo[f]azulen-6-yl}butyric acid] | ~0.3 mg/kg |
| > 200 mg/kg | >89.3 | O=C(O)Cc1ccc2c(c1)C(=C1CCN(CCCO)CC1)c1sccc1CO2 [Compound 139, {4-[1-(3-Hydroxypropyl)piperidin-4-ylidene]-4,10-dihydro-9-oxa-3-thiabenzo[f]azulen-6-yl}acetic acid] | 2.24 mg/kg |
| 37.5 mg/kg | 220.6 | CC(C)N1CCC(=C2c3cc(CC(=O)O)ccc3OCc3ccsc32)CC1 [Compound 132, [4-(1-Isopropylpiperidin-4-ylidene)-4,10-dihydro-9-oxa-3-thiabenzo[f]azulen-6-yl]acetic acid] | 0.17 mg/kg |
| 74.5 mg/kg | 67.7 | O=C(O)Cc1ccc2c(c1)C(=C1CCN(CCO)CC1)c1sccc1CO2 [Compound 119, {4-[1-(2-Hydroxyethyl)piperidin-4-ylidene]-4,10-dihydro-9-oxa-3-thiabenzo[f]azulen-6-yl}acetic acid] | 1.1 mg/kg |
| 14.6 mg/kg | 112.3 | CN1CCC(=C2c3cc(C(C)(C)C(=O)O)ccc3OCc3ccsc32)CC1 [Compound 68, 2-Methyl-2-[4-(1-Methylpiperidin-4-ylidene)-4,10-dihydro-9-oxa-3-thiabenzo[f]azulen-6-yl]propionic acid] | 0.13 mg/kg |
| 10.4 mg/kg | 39.4 | CC(=O)CN1CCC(=C2c3cc(CC(=O)O)ccc3OCc3ccsc32)CC1 [Compound 168, {4-[1-(2-Oxopropyl)piperidin-4-ylidene]-4,10-dihydro-9-oxa-3-thiabenzo[f]azulen-6-yl}acetic acid] | 0.264 mg/kg |

From US8377967B2, “Piperidine derivative” (Nippon Zoki Pharmaceutical Co., Ltd., priority 2008, dated 2013)
